Results on four molecules are retold here after patent US20250250252A1, “PIPERIDINYLBENZONITRILE DERIVATIVES AS INHIBITORS OF GLUTAMINYL-PEPTIDE CYCLOTRANSFERASE AND GLUTAMINYL-PEPTIDE CYCLOTRANSFERASE LIKE PROTEIN” (Boehringer Ingelheim International GmbH, priority 2024, published 2025).

The subject of data set [1] is SIRPα signalling induced by A549 cells. Put plainly: Assay B: SIRPα signalling assay using A549 cells. Type of data set: cell-based. The settings on record: Homo sapiens, read-out: Inhibition of SIRPα signalling induced by A549 cells: IC50. On the procedure: Two cell types are independently used: the Raji cell line (lymphoblast-like human cell line derived from B lymphocytes from a Burkitt's lymphoma patient in 1963) and A549 cells (adenocarcinomic human alveolar basal epithelial cells).
Test compounds were dissolved in 100% DMSO and serially diluted into a white 384-well microtiter cell culture plate (PerkinElmer #60076780 in case of Raji assay; PDL-coated plates Greiner #781945 in case of A549 assay). 5000 Raji cells (ATCC #CC86) or 5000 A549 cells (ATCC #CCL-185) in Assay Complete Cell Plating reagent 30 (DiscoverX 93-0563R30B) were added per well. The assay plate was incubated for 48 h at 37° C., 95% humidity and 5% CO2. 15000 reporter cells (Jurkat PathHunter SIRPαV1, DiscoverX #93-1135C19) were added to each well, and the plate was incubated for 5 h at 37° C., 95% humidity and 5% CO2. Bioassay reagent 1 of the PathHunter Bioassay detection kit (DiscoverX 93-0001) was added to each well of the plate using a multichannel pipette followed by a 15 min incubation at room temperature. Afterwards bioassay reagent 2 was added followed by 60 min incubation at room temperature (incubation in the dark).
The analysis of the data was performed using the luminescence signal generated by betagalactosidase in the PathHunter reporter cell line. The luminescence measurement was done using a Pherastar Multi-Mode Reader. Dose-response curves & IC50 data were calculated with 4-parameter sigmoidal dose response formula.

In data set [2] the test system is CACO-2 cells. The data set is described as follows: Assay C: Permeability in CACO-2 cells. The following applies: pair comparison without/with 4-fluoropiperidyl. It is filed as in vitro ADME. How it is done: (§1) Caco-2 cells (1-2×10^5 cells/1 cm^2 area) are seeded on filter inserts (Costar transwell polycarbonate or PET filters, 0.4 μm pore size) and cultured (DMEM) for 10 to 25 days. Compounds are dissolved in appropriate solvent (like DMSO, 1-20 mM stock solutions). […] The transport solution (TL) is applied to the apical or basolateral donor side for measuring A-B or B-A permeability (3 filter replicates), respectively. Samples are collected at the start and end of experiment from the donor and at various time intervals for up to 2 hours also from the receiver side for concentration measurement by HPLC-MS/MS or scintillation counting. Sampled receiver volumes are replaced with fresh receiver solution.
(§2) Efflux ratio (ER)=permeability B-A/permeability A-B

The test system of data set [3] is murine hepatocytes. Put plainly: Assay E: Stability in murine hepatocytes. Type of data set: in vitro ADME, mouse. The settings on record: 1 μM. On the procedure: The metabolic degradation of the test compound is assayed in a murine hepatocyte suspension.
Murine hepatocytes (typically cryopreserved) are incubated in an appropriate buffer system (e.g. Dulbecco's modified eagle medium plus 3.5 μg glucagon/500 mL, 2.5 mg insulin/500 mL and 3.75 mg/500 mL hydrocortison) containing 5% species serum.
Following a (typically) 30 min preincubation in an incubator (37° C., 10% CO2) 5 μl of test compound solution (80 μM; from 2 mM in DMSO stock solution diluted 1:25 with medium) are added into 395 μl hepatocyte suspension (cell density in the range 0.25-5 Mio cells/mL, typically 1 Mio cells/mL; final concentration of test compound 1 μM, final DMSO concentration 0.05%).
The cells are incubated for six hours (incubator, orbital shaker) and samples (2 μl) are taken at 0, 0.5, 1, 2, 4 and 6 hours. Samples are transferred into acetonitrile and pelleted by centrifugation (5 min). The supernatant is transferred to a new 96-deepwell plate, evaporated under nitrogen and resuspended.
CLint is calculated as follows CL_[…]=Dose/AUC=(C0/CD)/(AUD+clast/k)×1000/60. C0: initial concentration in the incubation [μM], CD: cell density of vital cells [10e6cells/mL], AUD: area under the data [μM×h], clast: concentration of last data point [μM], k: slope of the regression line for parent decline [h−1].
The calculated in vitro hepatic intrinsic clearance can be scaled up to the intrinsic in vivo hepatic Clearance and used to predict hepatic in vivo blood clearance (CL) by the use of a liver model (well stirred model).
CL_[…]_INVIVO[ml/min/kg]=(CL_[…][μL/min/10e6cells]×hepatocellularity[10e6cells/g liver]×liver factor[g/kg bodyweight])/1000
CL[ml/min/kg]=CL_[…]_INVIVO[ml/min/kg]×hepatic blood flow[ml/min/kg]/(CL_[…]_INVIVO[ml/min/kg]+hepatic blood flow[ml/min/kg])
Hepatocellularity,mouse:120×10e6cells/g liver
Liver factor,mouse:55 g/kg bodyweight
Blood flow,mouse:90 ml/(min×kg)

Data set [4] relates to Ramos cells. The settings on record: disclosed in WO 2024/020517 [00698]; read-out: cellular activity in Ramos cells IC50; cited from earlier work.
Data set [5] has as its target QPCTL (Homo sapiens (Human), UniProt Q9NXS2). Put plainly: Assay A: biochemical QPCTL activity assay (MALDI-TOF MS). The following applies: read-out: Inhibition of QPCTL: IC50. On the procedure: (§3) QPCT or QPCTL dependent conversion of N-terminal glutamine to pyroglutamate of CD47 was monitored via MALDI-TOF MS. Test compounds were dissolved in 100% DMSO and serially diluted into clear 1,536-well microtiter plates. Enzymatic reactions were set up in assay buffer containing 20 mM Tris pH 7.5, 0.1 mM TCEP, 0.01% BSA, and 0.001% Tween20. […] The plates were incubated for 10 min in a humidified incubator at 24° C. Subsequently, 2.5 μL of CD47 peptide substrate surrogate (^19[…]^33) was added to each well (final concentration: 10 μM for QPCTL/20 μM for QPCT). The plates were mixed for 30 sec at 1,000 rpm and subsequently incubated for 40 min in a humidified incubator at 24° C. […] The plates were sealed with an adhesive foil, mixed for 30 s at 1,000 rpm and stored at room temperature until preparation of the MALDI target plates. […] QPCT or QPCTL activity was monitored by calculating the ratio between product and internal standard signals followed by normalization to high (100% activity) and low (0% activity) controls. Determination of compound potencies was obtained by fitting the dose-response data to a four-parameter logistical equation.

The target of data set [6] is QPCT (Homo sapiens (Human), UniProt Q16769). Put plainly: Assay A: biochemical QPCT activity assay (MALDI-TOF MS). The following applies: read-out: Inhibition of QPCT: IC50. How it is done:
as §3

Data set [7] in a line: Assay C: Permeability in CACO-2 cells. It is filed as in vitro ADME. The settings on record: human, Assay C; for efflux ratio: Caco-2, pH 7.2, permeability B-A/permeability A-B, read-out: Efflux Ratio; for Papp A→B: pH 7.2, CACO-2 cells. On the procedure: as §1, §2
A general note: Caco-2 monolayers are a common model of the intestinal barrier.

The subject of data set [8] is CYP3A4 mRNA. Put plainly: Assay D: CYP induction screening assay in primary human hepatocytes. The following applies: 48 h. Type of data set: in vitro ADME. On the procedure: Cryopreserved plateable human hepatocytes (single donor, BioIVT) were thawed and plated in Collagen-I coated 96-well-plates at a cell density of 0.07 million cells per well.
After a 6 h attachment period, the seeding medium was replaced by serum-free William's medium E supplemented with Matrigel (0.25 mg/ml) and allowed to recover overnight. 24 h post-seeding, serum-free Williams E medium containing the test compound at a final concentration of 10 μM and a final DMSO content of 0.1% and 0.1% DMSO (solvents treated control), respectively, was added to predefined wells. Exposure solutions were renewed after 24 h.
After 48 h of treatment in total, the effect of the test compounds on CYP3A4 mRNA expression was assessed using the QuantiGene Plex Gene Expression Assay. Hepatocytes were lysed and total RNA was extracted using the QuantiGene Sample Processing Kit according to the instructions of the manufacturer.
mRNA quantification was conducted using a customized QuantiGene Plex Panel to analyse CYP3A4 and the housekeeper genes RPL32, EIF4E2 and GUSB according to the instructions of the manufacturer and measured on a Luminex™ instrument. Signal was reported as median fluorescence intensity (MFI), which is proportional to the number of target RNA molecules present in the sample.
For calculation of CYP3A4 mRNA induction, the signal for CYP3A4 was normalized against the geometric mean of the signal obtained for the housekeeper genes for hepatocytes exposed to test compounds in relation to solvent-treated samples according to the following equation:
n-fold induction=(MFI CYP3A4 (treated)/Xgeo MFI (RPL32,EIF4E2,GUSB))/(MFI CYP3A4 (solvent control)/Xgeo MFI (RPL32,EIF4E2,GUSB))

Data set [9] has as its target isolated QPCTL (Homo sapiens (Human), UniProt Q9NXS2). The settings on record: disclosed in WO 2023/205173 [00470]; read-out: inhibitory activity on isolated QPCTL IC50; cited from earlier work.
For data set [10], the system named is A549 cells. The settings on record: disclosed in WO 2023/205173 [00470]; read-out: cellular activity in A549 cells EC50; cited from earlier work.
Data set [11] relates to SIRPα signalling induced by Raji cells. Put plainly: Assay B: SIRPα signalling assay using Raji cells. The following applies: Homo sapiens, read-out: Inhibition of SIRPα signalling induced by Raji cells: IC50. Type of data set: cell-based. On the procedure:
Bioassay reagent 1 of the PathHunter Bioassay detection kit (DiscoverX 93-0001) was added to each well of the plate using a multichannel pipette followed by a 15 min incubation at room temperature. Afterwards bioassay reagent 2 was added followed by 60 min incubation at room temperature (incubation in the dark).
The analysis of the data was performed using the luminescence signal generated by betagalactosidase in the PathHunter reporter cell line. The luminescence measurement was done using a Pherastar Multi-Mode Reader.

Chain of QPCT (Q16769 29-361): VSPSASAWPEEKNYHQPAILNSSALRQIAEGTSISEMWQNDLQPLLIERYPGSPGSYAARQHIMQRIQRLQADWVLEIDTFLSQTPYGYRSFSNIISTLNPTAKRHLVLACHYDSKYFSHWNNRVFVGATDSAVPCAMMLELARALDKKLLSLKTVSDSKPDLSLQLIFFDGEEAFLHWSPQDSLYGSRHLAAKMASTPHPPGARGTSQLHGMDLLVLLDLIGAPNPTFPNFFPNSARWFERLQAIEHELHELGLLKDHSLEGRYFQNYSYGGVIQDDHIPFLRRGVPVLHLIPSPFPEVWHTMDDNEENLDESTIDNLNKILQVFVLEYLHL
Chain of QPCTL (Q9NXS2 whole entry): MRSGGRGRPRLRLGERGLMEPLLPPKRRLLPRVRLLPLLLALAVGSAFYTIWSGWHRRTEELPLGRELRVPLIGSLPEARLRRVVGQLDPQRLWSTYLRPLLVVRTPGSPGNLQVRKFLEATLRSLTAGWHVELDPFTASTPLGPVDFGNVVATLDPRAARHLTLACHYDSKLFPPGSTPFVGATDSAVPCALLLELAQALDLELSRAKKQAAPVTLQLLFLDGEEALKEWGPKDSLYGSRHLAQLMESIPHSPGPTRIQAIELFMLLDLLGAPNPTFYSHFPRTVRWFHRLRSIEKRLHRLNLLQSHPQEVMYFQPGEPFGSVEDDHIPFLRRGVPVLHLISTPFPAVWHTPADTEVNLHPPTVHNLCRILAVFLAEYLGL
Chain of isolated QPCTL (Q9NXS2 whole entry, species assumed): as the sequence (Q9NXS2 whole entry) above

For `Cn1cnnc1C1CCN(c2c(C#N)cccc2-c2ccc(F)nc2)CC1` [(1)/QP5020, reference compound], the half-inhibitory concentration (IC50) – broadly, the concentration needed to halve the response being measured – in data set [1] is 8 nM; in [4], less than 100 nM. The “CACO2 Perm.” value in data set [2] is listed as 28.0 10^−6 cm/sec. In data set [3], the “Mouse Hepatocyte Stability QH” value was found to be 82%.
Consider `Cn1c(N)nnc1C1CCN(c2c(C#N)cccc2-c2ccc(F)nc2)CC1` [Compound 14, reference compound], for which the IC50 in data set [5] was 1 nM; in data set [6], less than 1 nM; in data set [9], less than 1000 nM. Further, the efflux ratio in data set [7] turned out to be 22.2. In data set [7], the apical-to-basolateral permeability (Papp A→B) (as a rule, how fast a substance crosses the layer from the apical side) came out at 0.7 ×10⁻⁶ cm/s. Also, in data set [8], the “n-fold induction of CYP3A4 at 10 μM” value is listed as 1.9 n-fold. The “Mouse Hepatocyte Stability QH” value in data set [3] was 31%. For the same molecule, the EC50 (commonly the concentration at which the effect is half-maximal) in data set [10] is less than 1000 nM.
Turning to `Cc1nn(C)cc1-c1cc(C#N)c(N2CCC(F)(c3nncn3C)CC2)c(-c2ccc(F)nc2)c1` [Example 4], the IC50 in data set [5] amounted to 2 nM; in data set [6], 3 nM; in [11], 90 nM; in data set [1] it was 26 nM. Moreover, the efflux ratio in data set [7] was found to be 8.8. The molecule further had a Papp A→B in data set [7] of 5 ×10⁻⁶ cm/s. Besides, the “n-fold induction of CYP3A4 at 10 μM” value in data set [8] came out at 2.0 n-fold. Besides, the “Mouse Hepatocyte Stability QH” value in [3] came out at 21%.
For `Cn1cnnc1C1(F)CCN(c2c(C#N)cc(-c3ccnnc3)cc2-c2ccc(F)nc2)CC1` [Example 8], the half-maximal inhibitory concentration (IC50) is 2 nM in data set [5], 3 nM in data set [6], 267 nM in [11] and 651 nM in data set [1]. For the same molecule, the efflux ratio in data set [7] was determined as 20.3. In data set [7], this molecule registered an apical-to-basolateral permeability (Papp A→B) of 0.7 ×10⁻⁶ cm/s. Moreover, the “n-fold induction of CYP3A4 at 10 μM” value in data set [8] was determined as 0.9 n-fold. In data set [3], the “Mouse Hepatocyte Stability QH” value is on record as 20%.
